The target of data set [1] is T1, recombinant human Eg5 motor domain protein (Homo sapiens, UniProt P52732).
T1 construct: A plasmid expressing the motor domain of human Eg5 was constructed; made in house; host or cells: Escherichia coli BL21 (DE3)
T1 sequence (P52732 18-359 limits assumed): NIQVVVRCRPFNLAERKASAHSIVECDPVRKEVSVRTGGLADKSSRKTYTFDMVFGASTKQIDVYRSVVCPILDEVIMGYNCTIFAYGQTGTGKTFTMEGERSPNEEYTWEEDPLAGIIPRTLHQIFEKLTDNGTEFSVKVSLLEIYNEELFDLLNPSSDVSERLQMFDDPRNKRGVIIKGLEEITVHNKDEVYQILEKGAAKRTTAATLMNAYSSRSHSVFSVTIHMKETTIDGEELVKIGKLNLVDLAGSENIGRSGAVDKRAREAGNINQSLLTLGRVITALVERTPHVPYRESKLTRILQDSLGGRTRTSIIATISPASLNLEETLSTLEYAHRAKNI
Put plainly: Eg5 enzyme inhibition test (ATPase activity). It counts as biochemical. The procedure: A recombinant human Eg5 motor domain protein was prepared by referring to the literature [Biochemistry, Vol. 35, p. […] A plasmid expressing the motor domain of human Eg5 was constructed, and transformed into Escherichia coli BL21 (DE3). The transformant was cultured at 25° C., and when the OD600 reached 0.74, isopropyl-β-D-thiogalactoside was added at a final concentration of 0.5 mmol/L. The transformant was further cultured for 4 hours, and then the culture medium was centrifuged to collect the cells. The cells were suspended in a buffer and ultrasonicated, and then the sonicated solution was centrifuged to recover the supernatant. The supernatant was purified by cation exchange column chromatography to obtain a partially purified sample. Furthermore, the partially purified sample was purified by gel filtration column chromatography to obtain a finally purified sample.
Measurement of the ATPase activity of Eg5 was carried out by referring to the literatures [EMBO Journal, Vol. 13, p. […] Solution A was dispensed into each well of a 96-well plate as 45 μL portions. Solution B was used to serially dilute a test compound. The diluted test compound solutions in a volume of 30 μL were mixed with Solution A added beforehand in each well of the 96-well plate to start the enzymatic reaction. The enzymatic reaction was performed at 30° C. for 30 minutes. […] The relative activity was calculated to calculate IC50 value.

The test system of data set [2] is human ovarian cancer SK-OV-3 cells. Put plainly: Cell growth inhibition test against ovarian cancer cells (XTT). Format: cell-based. As to conditions: read-out: GI50 value (concentration of 50% growth inhibition), 72 hours. As to the method:
(§1) As cancer cell lines, human lung cancer A549 cells (ATCC No. CCL-185), human ovarian cancer SK-OV-3 cells (ATCC No. HTB-77), and human colon cancer HCT 116 cells (ATCC No. CCL-247) were used. For the culture of A549 cells, Nutrient Mixture F-12K medium (Invitrogen, catalog No. 21127-022) containing 10% fetal bovine serum (Invitrogen, catalog No. 10099-141), 100 units/mL penicillin (Invitrogen, catalog No. 15140-122), and 100 μg/mL streptomycin (Invitrogen, catalog No. 15140-122) was used. For the culture of SK-OV-3 cells and HCT 116 cells, McCoy's 5A medium (Invitrogen, catalog No. 16600-082) containing 10% fetal bovine serum (Invitrogen, catalog No. 10099-141), 100 units/mL penicillin (Invitrogen, catalog No. 15140-122), and 100 μg/mL streptomycin (Invitrogen, catalog No. 15140-122) was used. The cells were cultured at 37° C. in a 5% carbon dioxide atmosphere.
(§2) A549 cells (1000 cells/well), SK-OV-3 cells (2000 cells/well), or HCT 116 cells (1000 cells/well) were seeded in each well of 96-well plates (Nunc, catalog No. 167008), and cultured overnight. Test compounds diluted stepwise were added, and the cells were further cultured for 72 hours (final volume: 100 μL/well). Fifty μL XTT labeling mixture of Cell Proliferation Kit II (XTT) (Roche Diagnostics, catalog No. 1465015) was added to each well, and the plates were incubated at 37° C. After 1 to 3 hours, absorbance at 490 nm (reference wavelength: 655 nm) was measured with a plate reader (Molecular Device, SpectraMax 340PC^384). Growth ratios of the cells in the wells treated with the test compounds were calculated based on the growth ratio of the cells in the control well treated with solvent (dimethyl sulfoxide (DMSO)) for 72 hours, which was defined as 100%.
(In general: Tetrazolium dyes change colour on reduction, which living cells bring about.)

Data set [3] relates to human lung cancer A549 cells. Put plainly: Cell growth inhibition test against lung cancer cells (XTT). It counts as cell-based. Particulars: read-out: GI50 value (concentration of 50% growth inhibition), 72 hours. The procedure:
as §1, §2

The subject of data set [4] is human colon cancer HCT 116 cells. Put plainly: Cell growth inhibition test against colon cancer cells (XTT). It counts as cell-based. As to conditions: read-out: GI50 value (concentration of 50% growth inhibition), 72 hours. The procedure: as §1, §2

Where a name gives a salt, the structure may show the parent alone. Where only a bound is given, the exact number is not on record here.

By melting point is commonly meant the temperature of the solid-liquid transition.

As for `CC(=O)N1N=C(N2CCCC2=O)SC1(CCNS(C)(=O)=O)c1ccccc1` (centres unmarked) [Compound g, N-{2-[3-Acetyl-5-(2-oxopyrrolidin-1-yl)-2-phenyl-2,3-dihydro-1,3,4-thiadiazol-2-yl]ethyl}methanesulfonamide], the melting point is 137 to 140 °C. As to `CCNCCS(=O)(=O)NCCC1(c2ccccc2)SC(NC(=O)C(C)(C)C)=NN1C(=O)C(C)(C)C` (racemic) [Compound 14, N-{4-(2,2-Dimethylpropionyl)-5-[2-(2-ethylaminoethanesulfonylamino)ethyl]-5-phenyl-4,5-dihydro-1,3,4-thiadiazol-2-yl}-2,2-dimethylpropanamide], the “Inhibition of the ATPase activity of Eg5 (in words)” value in data set [1] is reported as “inhibited the ATPase activity of Eg5 in a concentration-dependent manner”. In turn, `CC(=O)N1N=C(NC(=O)C(C)(C)C)SC1(CCNS(C)(=O)=O)c1ccccc1` (single isomer, unassigned; (-)) [Compound f, (−)-N-[4-Acetyl-5-(2-methanesulfonylaminoethyl)-5-phenyl-4,5-dihydro-1,3,4-thiadiazol-2-yl]-2,2-dimethylpropanamide] came in with a melting point of 187 to 190 °C. As to `CC(C)(C)C(=O)NC1=NN(C(=O)C(C)(C)C)C(CN)(c2ccccc2)S1` (centres unmarked) [Compound j, N-[5-Aminomethyl-4-(2,2-dimethylpropionyl)-5-phenyl-4,5-dihydro-1,3,4-thiadiazol-2-yl]-2,2-dimethylpropanamide], the GI50 in data set [2] is < 10 µM; in data set [3] it was < 10 µM; in data set [4], < 0.1 µM.

Regarding `CC(C)(C)C(=O)NC1=NN(C(=O)C(C)(C)C)C(CN)(c2ccccc2)S1` (centres unmarked) (as salt: hydrochloride) [Compound j, N-[5-Aminomethyl-4-(2,2-dimethylpropionyl)-5-phenyl-4,5-dihydro-1,3,4-thiadiazol-2-yl]-2,2-dimethylpropanamide], the melting point was in the range of 175 to 182 °C. Still for that read-out and setting: in the case of `CC(C)(C)C(=O)N1N=C(N2CCCC2=O)SC1(CCNS(C)(=O)=O)c1ccccc1` (single isomer, unassigned; (-)) [Compound c, (−)-N-{2-[3-(2,2-Dimethylpropionyl)-5-(2-oxopyrrolidin-1-yl)-2-phenyl-2,3-dihydro-1,3,4-thiadiazol-2-yl]ethyl}methanesulfonamide] it was 107 to 110 °C.

The record behind these values is patent US20080194653A1, “Therapeutic Agent For Solid Tumor” (KYOWA HAKKO KOGYO CO., LTD., priority 2005, published 2008).
